These results are taken from publication PMC10113214 (Scientific Reports, 2023).

For data set [1], the system named is human primary dermal fibroblasts. It is filed as cell-based. How it is done: Skin samples were obtained from patients of the Oncological Surgery Clinic in the Medical University of Gdańsk. The procedure was approved by the Independent Bioethics Commission for Research of the Medical University of Gdańsk (NKBBN/387/2014) and written informed consent was obtained from patients prior to surgery. All experiments were performed in accordance with guidelines and regulations. The isolation of fibroblasts was performed by explant culture as previously described. Briefly, skin samples were cut into small pieces, and the epidermis was removed by dispase digestion. To allow cells to grow out from the tissue samples, the human dermis was placed in 6-well plates in DMEM-HG medium (Sigma Aldrich Co., cat. D6429) supplemented with 10% of FBS (fetal bovine serum, Sigma-Aldrich Co., F9665), 100 U/mL of penicillin and 100 μg/mL streptomycin, and placed under standard conditions (humidified atmosphere with 5% CO2 at 37 °C). The medium was changed every 2–3 days.
RADA peptides were dissolved in water at a concentration of 1.0%, placed in culture inserts (0.4 μm) in 24-well plates, and incubated for at least 1 h at 37 °C to allow gelation. […] After 3 days of incubation, cells were stained with carboxyfluorescein succinimidyl ester (CFSE) (10 μM) and propidium iodide (100 µM) for 3 min. and then analyzed by fluorescence microscopy to assess their viability.

Data set [2] relates to HaCaT keratinocytes. In words: LDH cytotoxicity assay, HaCaT. It is filed as cell-based, human. The settings on record: 150 µg/ml, 48 h, 3 independent experiments, n = 12. How it is done:
(§1) Human HaCaT keratinocytes (DKFZ, Heidelberg, Germany)[47],[48], the human dermal fibroblast 46BR.1N cell line (ECACC, Sigma Aldrich Co.) and human primary dermal fibroblasts used in this study were routinely cultured in culture flasks (growth surface area: 25 cm^2) in DMEM-HG medium supplemented with 10% fetal bovine serum, 100 U/mL penicillin and […] streptomycin under standard conditions.
(§2) Briefly, the HaCaT and 46BR.1N cells were seeded in 96-well plates at a density of 5000 per well. Cell stimulation with RADA derivatives was performed using a protocol described before[49],[50]. Both assays were performed according to the manufacturers’ instructions (XTT- Roche, Cat. No. 11465015001; LDH- Takara, Cat. No. MK401).

The test system of data set [3] is 46BR.1N fibroblasts. In words: LDH cytotoxicity assay, 46BR.1N. In kind it is cell-based, human. The conditions noted are these: 150 µg/ml, 48 h, 3 independent experiments, n = 12. How it is done:
as §1, §2

A short description of data set [4]: Transmission electron microscopy of nanofibres. In kind it is physicochemical. The conditions noted are these: 1% gel in PBS diluted to 0.001%, uranyl acetate stain. How it is done:
1% gel solutions were prepared and incubated in PBS. The samples were then diluted to 0.001% concentration. A drop of solution was applied to a microcellulose membrane and stained with a 1.5% solution of uranyl acetate. The images were registered on a Tecnai Spirit BioTwin FEI Transmission Electron Microscope operating at 120 kV.

Data set [5] can be described thus: Circular dichroism, conformation and thermal stability of β-sheet. It is filed as physicochemical. The conditions noted are these: CD. How it is done:
The molar ellipticity of peptides were registered on a Jasco J-815 spectrometer (JASCO, Easton, MD, USA). Solutions of peptide hybrids were prepared in water solution (10 mg/ml), incubated at 37 °C for 4 h and then diluted to a final concentration of 0.20 mg/ml. CD spectra measurements were performed at 25 °C, 30 °C, 35 °C, 40 °C, 45 °C, 50 °C, 55 °C and 60 °C, at 190–260 nm wavelength and at a scan speed of […]. The background of the solvent was subtracted. The results are presented as the relationship of mean residue molar ellipticity (MRME) [deg × cm^2 × dmol^−1] to wavelength [nm]. Measurements were performed in triplicate. In order to determine the peptides’ denaturation temperatures, the molar ellipticity rotatory angle at a fixed wavelength of 196 nm, [θ]196, was measured as a function of temperature (max 100 °C). CD temperature measurements were carried out up to a temperature of 100 °C. Above this temperature, the cure was extrapolated with GraphPad Prism 8 software using the 4PL curve fit function. The denaturation temperature was determined as the temperature at which the change in ellipticity (θ) was half complete.

The test system of data set [6] is dorsal skin wounds. In words: Histological evaluation of skin samples. In kind it is in vivo, BALB/c mice. The conditions noted are these: Masson’s trichrome, versus RADA16-I group, Mann–Whitney U test. The text has this: Mice were sacrificed on day 18 post-injury. In addition, for investigation of early wound healing, 1 mouse from each group was sacrificed on day 4 post-injury. The skin samples were collected and stored in formalin. Skin samples embedded in paraffin were cut into 5 µm sections following staining with Masson’s trichrome (green: collagen, dermis; grey or dark grey: cell nuclei, epidermis, sebaceous glands; dark red: keratinized epidermis, muscle, hair; light red: red blood cells). Image acquisitions were made with a Leica DM IL microscope. To evaluate the collagen density in dorsal skin wounds, we employed the method of colour deconvolution described by Ruifrok and Johnston[52]. Using the ImageJ software with a colour deconvolution plug-in[53], we analyzed between 7 and 9 images of dorsal skin samples stained with Masson’ trichrome, representing 2–3 mice per group. The results are presented as mean relative collagen density.

Take `CC(=O)N[C@@H](CCCNC(=N)N)C(=O)N[C@@H](C)C(=O)N[C@@H](CC(=O)O)C(=O)N[C@@H](C)C(=O)N[C@@H](CCCNC(=N)N)C(=O)N[C@@H](C)C(=O)N[C@@H](CC(=O)O)C(=O)N[C@@H](C)C(=O)N[C@@H](CCCNC(=N)N)C(=O)N[C@@H](C)C(=O)N[C@@H](CC(=O)O)C(=O)N[C@@H](C)C(=O)N[C@@H](CCCNC(=N)N)C(=O)N[C@@H](C)C(=O)N[C@@H](CC(=O)O)C(=O)N[C@@H](C)C(=O)NCC(=O)NCC(=O)NCC(=O)N[C@@H](C)C(=O)N[C@@H](C)C(=O)N1CCC[C@H]1C(=O)N[C@H](C(=O)NCC(=O)NCC(=O)NCC(=O)N[C@@H](CCCCN)C(=O)NCC(=O)N[C@@H](Cc1c[nH]cn1)C(=O)N[C@@H](CCCCN)C(N)=O)C(C)C` [RADA-KGHK, Ac-(Arg-Ala-Asp-Ala)4-Gly-Gly-Gly-Ala-Ala-Pro-Val-Gly-Gly-Gly-Lys-Gly-His-Lys-NH2]: the “viability / dead cells on scaffold (CFSE / propidium iodide)” value in data set [1] is on record as “most dead cells were observed”. In addition, the “cytotoxicity (LDH), slight effect” value in data set [2] and in data set [3] was “ca. 15%” in each case. Also, the “fibre thickness (TEM)” value in data set [4] is listed as “about 3 nm”. Moreover, the “temperature of first disruption of the β-sheets” value in data set [5] ([θ]196 nm as function of temperature 4–100 °C, gel 10 mg/ml in water, 37 °C 4 h, diluted to 0.20 mg/ml, decrease of molar ellipticity) is around 61 °C. For the same compound, the “transition temperature (half β-conformation, half disordered)” value in data set [5] ([θ]196 nm vs temperature, 0.20 mg/ml in water, above 100 °C curve extrapolated, 4PL fit) was “about 92 °C”. In addition, the “epithelium (membrane-like structure) thickness on day 4 post-injury” value in data set [6] was “significantly thicker epithelium”.
